Key:
[1] = Inhibition of pig GSK-3-alpha/GSK-3beta; parameters: species or system Sus scrofa
[2] = Inhibition of starfish oocyte CDK1/cyclin B; parameters: species or system Marthasterias glacialis
[3] = biological target: Cyclin-dependent kinase 2/cyclin A (Homo sapiens, UniProt P24941); test: Inhibition of human recombinant CDK2/cyclin A expressed in insect cells
[4] = biological target: Cyclin-dependent kinase 5/CDK5 activator 1 (Homo sapiens, UniProt Q00535); test: Inhibition of recombinant GST-CDK5/p25 expressed in Escherichia coli
[5] = biological target: CDK9/cyclin T1 (Homo sapiens, UniProt P50750); test: Inhibition of human recombinant CDK9/cyclin T expressed in insect cells
[6] = Inhibition of pig CK1delta/CK1epsilon; parameters: species or system Sus scrofa
[7] = tested on: SH-SY5Y; test: cells; conditions: Homo sapiens, 48 h
Description: Survival of human SHSY5Y cells after 48 hrs by MTS reduction assay

[8] = tested on: HEK293; test: cells; conditions: Homo sapiens, HEK293, 48 h
Description: Survival of human HEK293 cells after 48 hrs by MTS reduction assay

[9] = tested on: GBM; test: cells; conditions: Homo sapiens, 48 h
Description: Survival of human GBM cells after 48 hrs by neutral red reduction assay

[10] = tested on: KMS-11; test: cells; conditions: Homo sapiens, KMS-11, 48 h
Description: Survival of human KMS11 cells after 48 hrs by neutral red reduction assay

[11] = tested on: LS174T; test: cells; conditions: Homo sapiens, 48 h
Description: Survival of human LS174T cells after 48 hrs by MTS reduction assay

[12] = biological target: Dual specificity tyrosine-phosphorylation-regulated kinase 1A (Rattus norvegicus, UniProt Q63470); test: Inhibition of rat recombinant GST-DYRK1A expressed in Escherichia coli
[13] = tested on: HCT-116; test: Antiproliferative activity against human HCT116 cells after 5 days; assay type: functional, cell-based; conditions: HCT-116, 120 h
[14] = tested on: HCT-116; test: Antiproliferative activity against human HCT116 cells assessed as reduction in diameter of spheroids at 1 uM after 5 days; assay type: functional

Chain of Cyclin-dependent kinase 5/CDK5 activator 1 (Q00535 whole entry): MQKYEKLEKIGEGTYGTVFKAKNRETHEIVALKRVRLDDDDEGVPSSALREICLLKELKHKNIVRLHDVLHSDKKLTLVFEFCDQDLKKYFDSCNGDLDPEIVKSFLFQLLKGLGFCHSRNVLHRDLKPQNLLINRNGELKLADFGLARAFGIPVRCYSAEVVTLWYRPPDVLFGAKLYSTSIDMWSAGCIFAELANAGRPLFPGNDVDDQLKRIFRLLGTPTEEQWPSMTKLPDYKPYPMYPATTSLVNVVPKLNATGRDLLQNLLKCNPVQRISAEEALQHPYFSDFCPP
Chain of Cyclin-dependent kinase 5/CDK5 activator 1 (Q15078 whole entry, further chain): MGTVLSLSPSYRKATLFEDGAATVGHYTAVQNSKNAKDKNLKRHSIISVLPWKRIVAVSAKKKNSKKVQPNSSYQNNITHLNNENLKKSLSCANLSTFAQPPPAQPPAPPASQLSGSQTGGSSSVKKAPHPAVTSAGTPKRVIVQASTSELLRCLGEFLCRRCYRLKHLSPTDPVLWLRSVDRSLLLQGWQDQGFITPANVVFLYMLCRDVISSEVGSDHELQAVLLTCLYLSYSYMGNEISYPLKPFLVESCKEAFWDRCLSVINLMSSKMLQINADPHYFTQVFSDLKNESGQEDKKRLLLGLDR
Chain of CDK9/cyclin T1 (O60563 whole entry): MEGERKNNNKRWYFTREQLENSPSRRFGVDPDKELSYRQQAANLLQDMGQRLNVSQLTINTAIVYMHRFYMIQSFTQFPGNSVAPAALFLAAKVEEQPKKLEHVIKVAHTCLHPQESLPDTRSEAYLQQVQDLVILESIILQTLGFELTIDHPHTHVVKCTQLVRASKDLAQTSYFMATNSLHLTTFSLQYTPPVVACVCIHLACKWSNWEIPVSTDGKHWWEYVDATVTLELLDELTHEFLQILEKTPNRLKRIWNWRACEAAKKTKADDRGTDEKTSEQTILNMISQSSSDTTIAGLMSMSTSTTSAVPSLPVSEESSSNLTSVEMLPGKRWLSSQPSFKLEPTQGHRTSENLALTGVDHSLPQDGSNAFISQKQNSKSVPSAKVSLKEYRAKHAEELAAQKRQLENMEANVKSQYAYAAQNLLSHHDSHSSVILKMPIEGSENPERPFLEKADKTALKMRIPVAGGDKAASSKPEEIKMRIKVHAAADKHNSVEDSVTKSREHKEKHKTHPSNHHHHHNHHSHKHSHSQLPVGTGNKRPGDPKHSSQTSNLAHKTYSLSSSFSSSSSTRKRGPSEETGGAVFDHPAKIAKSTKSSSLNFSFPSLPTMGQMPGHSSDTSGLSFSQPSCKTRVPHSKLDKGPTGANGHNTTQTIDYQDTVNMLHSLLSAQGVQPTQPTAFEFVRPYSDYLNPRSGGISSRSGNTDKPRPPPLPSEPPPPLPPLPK
Chain of CDK9/cyclin T1 (P50750 whole entry): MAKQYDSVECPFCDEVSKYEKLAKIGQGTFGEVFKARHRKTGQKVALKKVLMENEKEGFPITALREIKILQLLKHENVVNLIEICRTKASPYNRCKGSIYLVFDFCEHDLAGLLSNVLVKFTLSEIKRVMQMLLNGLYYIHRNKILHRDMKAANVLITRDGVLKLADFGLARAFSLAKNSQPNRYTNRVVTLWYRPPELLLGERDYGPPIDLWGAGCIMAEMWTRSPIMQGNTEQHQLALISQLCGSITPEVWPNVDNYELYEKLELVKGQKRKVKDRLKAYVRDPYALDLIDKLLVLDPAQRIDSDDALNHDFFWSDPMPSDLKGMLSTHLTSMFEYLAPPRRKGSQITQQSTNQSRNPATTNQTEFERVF

| IC50 [1] | IC50 [3] | IC50 [4] | IC50 [5] | IC50 [6] | IC50 [7] | IC50 [9] | IC50 [10] | IC50 [11] | IC50 [12] | IC50 [13] | SMILES | IC50 [2] | IC50 [8] | Activity [14] |
| --- | --- | --- | --- | --- | --- | --- | --- | --- | --- | --- | --- | --- | --- | --- |
| 7000 nM | 2100 nM | 2300 nM | 1100 nM | 600 nM | > 100000 nM | > 20000 nM | > 20000 nM | > 30000 nM | – | – | COc1ccnc2[nH]cc(-c3ccnc(SC)n3)c12 | 1800 nM | 66000 nM | – |
| 30000 nM | 1300 nM | 680 nM | 1000 nM | – | 43000 nM | > 20000 nM | > 15000 nM | > 30000 nM | 300 nM | – | Nc1nccc(-c2c[nH]c3nc(Br)ccc23)n1 | 2200 nM | > 100000 nM | – |
| 2000 nM | 60 nM | 230 nM | 50 nM | 3000 nM | 1920 nM | 10000 nM | 7500 nM | > 10000 nM | – | – | Nc1nccc(-c2c[nH]c3nccc(Cl)c23)n1 | 240 nM | 10800 nM | – |
| 1100 nM | 800 nM | 1300 nM | 220 nM | 600 nM | 10200 nM | 10000 nM | 10000 nM | 10000 nM | – | – | COc1ccnc2[nH]cc(-c3ccncn3)c12 | – | 35500 nM | – |
| 1800 nM | 700 nM | 700 nM | 250 nM | – | 28000 nM | > 20000 nM | > 15000 nM | 23500 nM | – | – | Oc1ccnc2[nH]cc(-c3ccncn3)c12 | – | 84000 nM | – |
| – | – | 510 nM | 26 nM | – | 670 nM | 1380 nM | 1270 nM | 1500 nM | – | – | Nc1nccc(-c2c[nH]c3ncccc23)n1 [MERIOLIN 1] | – | 2200 nM | – |
| 400 nM | 18 nM | 50 nM | 18 nM | – | 410 nM | 1210 nM | 600 nM | 1060 nM | – | – | Nc1nccc(-c2c[nH]c3nccc(O)c23)n1 [MERIOLIN 2] | 57 nM | 960 nM | – |
| 230 nM | 11 nM | 170 nM | 6 nM | 200 nM | 73 nM | 140 nM | 120 nM | 130 nM | – | 63 nM | COc1ccnc2[nH]cc(-c3ccnc(N)n3)c12 [MERIOLIN 3] | 170 nM | 240 nM | 720 um |
| 30 nM | 7 nM | 5 nM | 7 nM | 100 nM | 81 nM | 130 nM | 60 nM | 100 nM | – | – | CCOc1ccnc2[nH]cc(-c3ccnc(N)n3)c12 [MERIOLIN 4] | 10 nM | 220 nM | – |
| 25 nM | 3 nM | 3 nM | 5.6 nM | 200 nM | 26 nM | 80 nM | 40 nM | 47 nM | – | – | CCCOc1ccnc2[nH]cc(-c3ccnc(N)n3)c12 [MERIOLIN 5] | 7 nM | 85 nM | – |
| 21 nM | – | 3 nM | 5.6 nM | 140 nM | – | 80 nM | – | 60 nM | – | – | CC(C)Oc1ccnc2[nH]cc(-c3ccnc(N)n3)c12 [MERIOLIN 6] | 8 nM | 89 nM | – |
| 63000 nM | > 10000 nM | 14000 nM | 5300 nM | 100000 nM | > 100000 nM | > 20000 nM | > 20000 nM | > 30000 nM | > 10000 nM | – | COCCOc1ccnc2[nH]cc(-c3ccnc(N)n3)c12 [MERIOLIN 7] | 35000 nM | > 100000 nM | – |
| 4600 nM | 1800 nM | 5500 nM | 1200 nM | 2300 nM | > 30000 nM | > 20000 nM | > 20000 nM | > 30000 nM | – | – | Cn1cc(-c2ccnc(N)n2)c2c(O)ccnc21 [MERIOLIN 8] | – | > 30000 nM | – |
| – | – | 73000 nM | – | – | – | – | – | – | – | – | COc1ccnc2c1c(-c1ccnc(N)n1)cn2C [MERIOLIN 9] | 25000 nM | – | – |

— ChEMBL document CHEMBL1141564, “Meriolins (3-(pyrimidin-4-yl)-7-azaindoles): synthesis, kinase inhibitory activity, cellular effects, and structure of a CDK2/cyclin A/meriolin complex” (J Med Chem, 2008)
